According to patent US9765018B2, “IDO inhibitors” (BRISTOL-MYERS SQUIBB COMPANY, priority 2013, dated 2017):

Assays:
IDO [1] = biological target: T1, IDO (Homo sapiens (Human), UniProt P14902); test: Kynurenine assay in IFN-γ-stimulated Hela cells; type: cell-based; conditions: 20 h, read-out: Hela Kyurenine (IC50)
Method in brief: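 Kynurenine in supernatant is read at 490 nm after Ehrlich reagent (10 min RT), following TCA stop and 30 min at 50° C hydrolysis. Before that, Hela cells in phenol red-free RPMI/10% FBS were co-treated 20 h at 37° C with 100 ng/mL IFN-γ and compound (30 μM top, 3-fold series to 1.5 nM).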

IDO [2] = biological target: T1, IDO; test: LLE_IDO_ABS_DR (IDO assay, method not described)

T1 sequence (P14902 whole entry): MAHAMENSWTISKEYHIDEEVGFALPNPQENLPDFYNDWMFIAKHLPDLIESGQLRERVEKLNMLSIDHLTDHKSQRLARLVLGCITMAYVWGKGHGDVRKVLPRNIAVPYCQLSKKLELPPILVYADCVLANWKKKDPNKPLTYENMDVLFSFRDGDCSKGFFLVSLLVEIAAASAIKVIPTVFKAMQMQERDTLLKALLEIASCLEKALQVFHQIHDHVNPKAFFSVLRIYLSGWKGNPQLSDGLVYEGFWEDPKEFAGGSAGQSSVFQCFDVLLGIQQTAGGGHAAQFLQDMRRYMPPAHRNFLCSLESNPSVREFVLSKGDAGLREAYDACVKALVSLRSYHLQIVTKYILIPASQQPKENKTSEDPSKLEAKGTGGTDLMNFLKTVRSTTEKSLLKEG

Structure (SMILES) | IC50 (IDO [1]) | IC50 (IDO [2])
COc1ccc(-c2ccc(Oc3cccc(C)c3C)c(NC(=O)Nc3ccccc3C)c2)cc1C(=O)O [Example 121, 4′-(2,3-dimethylphenoxy)-4-methoxy-3′-(3-o-tolylureido)biphenyl-3-carboxylic acid] | 110 nM | 390 nM
COc1ccc(-c2ccc(Oc3ccccc3C3CC3)c(NC(=O)Nc3ccccc3C)c2)cc1C(=O)O [Example 125, 4′-(2-cyclopropylphenoxy)-4-methoxy-3′-(3-o-tolylureido)biphenyl-3-carboxylic acid] | 170 nM | 730 nM
COc1ccc(-c2ccc(Oc3ccccc3C(C)(C)C)c(NC(=O)Nc3ccc(OC(F)(F)F)cc3)c2)cc1C(=O)O [Example 66, 4′-(2-tert-butylphenoxy)-4-methoxy-3′-(3-(4-(trifluoromethoxy)phenyl)ureido)biphenyl-3-carboxylic acid] | 820 nM | 1590 nM
CCCc1ccccc1Oc1ccc(-c2ccc(OC)c(C(=O)O)c2)cc1NC(=O)Nc1cccc(C)c1 [Example 76, 4-methoxy-4′-(2-propylphenoxy)-3′-(3-m-tolylureido)biphenyl-3-carboxylic acid] | 600 nM | 2040 nM
O=C(Nc1ccc(Cl)cc1)Nc1cc(-c2ccccc2-c2nnn[nH]2)ccc1Oc1cccc2c1CCCC2 [Example 189, 1-(4-chlorophenyl)-3-(4-(5,6,7,8-tetrahydronaphthalen-1-yloxy)-2′-(1H-tetrazol-5-yl)biphenyl-3-yl)urea] | 360 nM | 1240 nM
Cc1cccc(NC(=O)Nc2cc(-c3ccc(C(=O)O)cc3)ccc2Oc2ccccc2C(C)(C)C)c1 [Example 201, 4′-(2-tert-butylphenoxy)-3′-(3-m-tolylureido) biphenyl-4-carboxylic acid] | 780 nM | 8150 nM
COc1ccc(-c2ccc(Oc3ccccc3C(C)C)c(NC(=O)Nc3ccccc3Cl)c2)cc1C(=O)O [Example 62, 3′-(3-(2-chlorophenyl)ureido)-4′-(2-isopropylphenoxy)-4-methoxybiphenyl-3-carboxylic acid] | 140 nM | 530 nM
COc1ccc(-c2ccc(Oc3cccc4c3CCCC4=O)c(NC(=O)Nc3ccccc3Cl)c2)cc1C(=O)O [Example 149, 3′-(3-(2-chlorophenyl)ureido)-4-methoxy-4′-(5-oxo-5,6,7,8-tetrahydronaphthalen-1-yloxy)biphenyl-3-carboxylic acid] | 530 nM | 2050 nM
COc1ccc(-c2ccc(Oc3cccc4ccccc34)c(NC(=O)Nc3cccc(C)c3)c2)cc1C(=O)O [Example 130, 4-methoxy-4′-(naphthalen-1-yloxy)-3′-(3-m-tolylureido)biphenyl-3-carboxylic acid] | 120 nM | 480 nM
COc1ccc(-c2ccc(Oc3cccc4c3OC(C)(C)C4)c(NC(=O)Nc3ccccc3C)c2)cc1C(=O)O [Example 139, 4′-(2,2-dimethyl-2,3-dihydrobenzofuran-7-yloxy)-4-methoxy-3′-(3-o-tolylureido)biphenyl-3-carboxylic acid] | 680 nM | 2640 nM
COc1ccc(-c2ccc(Oc3cccc(C(C)(C)C)c3)c(NC(=O)Nc3cccc(C)c3)c2)cc1C(=O)O [Example 112, 4′-(3-tert-butylphenoxy)-4-methoxy-3′-(3-m-tolylureido)biphenyl-3-carboxylic acid] | 370 nM | 1050 nM
Cc1ccc(NC(=O)Nc2cc(-c3ccc(F)cc3C(=O)O)ccc2Oc2ccccc2C(C)(C)C)cc1 [Example 170, 4′-(2-tert-butylphenoxy)-4-fluoro-3′-(3-p-tolylureido)biphenyl-2-carboxylic acid] | 810 nM | 2230 nM
COc1ccc(-c2ccc(Oc3ccccc3C(C)(C)C)c(NC(=O)Nc3ccccc3C)c2)c(C(=O)O)c1 [Example 162, 4′-(2-tert-butylphenoxy)-4-methoxy-3′-(3-o-tolylureido)biphenyl-2-carboxylic acid] | 1250 nM | 2240 nM
Cc1ccc(NC(=O)Nc2cc(-c3cc(Cl)cc(C(=O)O)c3)ccc2Oc2ccccc2C(C)(C)C)cc1 [Example 246, 4′-(2-tert-butylphenoxy)-5-chloro-3′-(3-p-tolylureido) biphenyl-3-carboxylic acid] | 700 nM | 3940 nM
CC(C)(C)c1ccccc1Oc1ccc(-c2ccccc2-c2nnn[nH]2)cc1NC(=O)Nc1ccccc1F [Example 190, 1-(4-(2-tert-butylphenoxy)-2′-(1H-tetrazol-5-yl)biphenyl-3-yl)-3-(2-fluorophenyl)urea] | 170 nM | 450 nM
CCCNC(=O)Nc1cc(-c2ccc(OC)c(C(=O)O)c2)ccc1Oc1cccc2c1CCCC2 [Example 118, 4-methoxy-3′-(3-propylureido)-4′-(5,6,7,8-tetrahydronaphthalen-1-yloxy)biphenyl-3-carboxylic acid] | 920 nM | 1060 nM
Cc1ccccc1NC(=O)Nc1cc(-c2ccccc2-c2nnn[nH]2)ccc1Oc1ccccc1C(C)(C)C [Example 181, 1-(4-(2-tert-butylphenoxy)-2′-(1H-tetrazol-5-yl)biphenyl-3-yl)-3-o-tolylurea] | 90 nM | 740 nM
CC(C)(C)c1ccccc1Oc1ccc(-c2cccc(Cl)c2C(=O)O)cc1NC(=O)Nc1ccccc1Cl [Example 172, 4′-(2-tert-butylphenoxy)-3-chloro-3′-(3-(2-chlorophenyl)ureido)biphenyl-2-carboxylic acid] | 1280 nM | 1920 nM
COc1ccc(-c2ccc(Oc3ccc4c(c3)CCCC4)c(NC(=O)Nc3ccccc3C)c2)cc1C(=O)O [Example 146, 4-methoxy-4′-(5,6,7,8-tetrahydronaphthalen-2-yloxy)-3′-(3-o-tolylureido)biphenyl-3-carboxylic acid] | 270 nM | 580 nM
Cc1cccc(NC(=O)Nc2cc(-c3ccccc3-c3nnn[nH]3)cc(CC3CC3)c2OCCC(F)(F)F)c1 [Example 315] | – | 80 nM

Structure (SMILES) | IC50 (IDO [1]) | IC50 (IDO [2])
Cc1ccc(NC(=O)Nc2cc(-c3ccc(F)cc3-c3nnn[nH]3)ccc2Oc2ccccc2C(C)(C)C)cc1 [Example 197, 1-(4-(2-tert-butylphenoxy)-4′-fluoro-2′-(1H-tetrazol-5-yl)biphenyl-3-yl)-3-p-tolylurea] | – | 200 nM
C/C=C/Cc1cc(-c2cc(F)ccc2C(=O)O)cc(NC(=O)Nc2ccc(C)cc2)c1OCCC [Example 21, (E)-3′-(But-2-en-1-yl)-5-fluoro-4′-propoxy-5′-(3-(p-tolyl)ureido)-[1,1′-biphenyl]-2-carboxylic acid] | – | 150 nM
O=C(Nc1ccccc1F)Nc1cc(-c2cc(F)ccc2C(=O)O)cc(/C=C/C=C(F)F)c1OCCC(F)(F)F [Example 281] | – | 820 nM
CCCOc1c(NC(=O)Nc2ccc(C3CC3)cc2)cc(-c2ccccc2-c2nnn[nH]2)cc1C1CC1 [Example 276, 1-(5-cyclopropyl-4-propoxy-2′-(1H-tetrazol-5-yl)-[1,1′-biphenyl]-3-yl)-3-(4-cyclopropylphenyl)urea] | – | 690 nM
CCCOc1c(CCC)cc(-c2ccccc2C(=O)O)cc1NC(=O)Nc1ccc(C)cc1 [Example 17, 4′-Propoxy-3′-propyl-5′-(3-(p-tolyl)ureido)-[1,1′-biphenyl]-2-carboxylic acid] | – | 200 nM
C/C=C/Cc1cc(-c2ccccc2C(=O)O)cc(NC(=O)Nc2ccc(C)cc2)c1OCc1ccccc1 [Example 26, (E)-4′-(Benzyloxy)-3′-(but-2-en-1-yl)-5′-(3-(p-tolyl)ureido)-[1,1′-biphenyl]-2-carboxylic acid] | – | 650 nM
CC(C)(C)c1ccccc1Oc1ccc(-c2cncc(C(=O)O)c2)cc1NC(=O)Nc1ccc(OC(F)(F)F)cc1 [Example 266, 5-(4-(2-tert-butylphenoxy)-3-(3-(4-(trifluoromethoxy)phenyl)ureido)phenyl)nicotinic acid] | – | 2150 nM
CCCOc1c(CCC)cc(-c2cc(F)ccc2C(=O)O)cc1NC(=O)Nc1ccc(C)cc1 [Example 18, 5-Fluoro-4′-propoxy-3′-propyl-5′-(3-(p-tolyl)ureido)-[1,1′-biphenyl]-2-carboxylic acid] | – | 310 nM
CCCC(Oc1ccc(-c2cc(F)ccc2C(=O)O)cc1NC(=O)Nc1ccc(C)cc1)c1ccccc1Cl (stereo not shown) [Example 306] | – | 5450 nM
Cc1ccc(NC(=O)Nc2cc(-c3ccccc3-c3nnn[nH]3)ccc2OC(CCC(F)(F)F)c2ccc(Cl)cc2)cc1 (stereo not shown) [Example 312] | – | 80 nM
O=C(Nc1ccc(F)cc1F)Nc1cc(-c2ccccc2-c2nnn[nH]2)cc(CC2CC2)c1OCCC(F)(F)F [Example 318] | – | 320 nM
Cc1ccc(NC(=O)Nc2cc(-c3cc(F)ccc3C(=O)O)cc(C/C=C/C(F)(F)F)c2OCCC(F)(F)F)cc1 [Example 302] | – | 100 nM
Cc1ccc(NC(=O)Nc2cc(-c3ccccc3-c3nnn[nH]3)cc(CC3CC3)c2Oc2ccccc2)cc1 [Example 322] | – | 460 nM
Cc1ccc(NC(=O)Nc2cc(-c3ccccc3C(=O)O)ccc2OC(C(C)C)C(C)C)cc1 [Example 10, 4′-((2,4-Dimethylpentan-3-yl)oxy)-3′-(3-(p-tolyl)ureido)-[1,1′-biphenyl]-2-carboxylic acid] | – | 720 nM
CCC(Oc1ccc(-c2ccccc2-c2nnn[nH]2)cc1NC(=O)Nc1ccc(C)cc1)c1ccccc1 (stereo not shown) [Example 271] | – | 30 nM
Cc1ccc(NC(=O)Nc2cc(-c3ccccc3C(=O)O)cc(C/C=C/C(F)(F)F)c2OCCC(F)(F)F)cc1 [Example 303] | – | 160 nM
CC(C)C(Oc1ccc(-c2ccccc2-c2nnn[nH]2)cc1NC(=O)Nc1ccccc1F)C(C)C [Example 11, 1-(4-((2,4-Dimethylpentan-3-yl)oxy)-2′-(1H-tetrazol-5-yl)-[1,1′-biphenyl]-3-yl)-3-(2-fluorophenyl)urea] | – | 160 nM
CCCOc1c(C/C=C/c2ccccc2)cc(-c2ccccc2C(=O)O)cc1NC(=O)Nc1ccc(C)cc1 [Example 35, 3′-Cinnamyl-4′-propoxy-5′-(3-p-tolylureido)biphenyl-2-carboxylic acid] | – | 100 nM
CCCCC(Oc1ccc(-c2cc(F)ccc2C(=O)O)cc1NC(=O)Nc1ccc(C)cc1)C1CCCCC1 (stereo not shown) [Example 269] | – | 1100 nM
